Values quoted from earlier work as cited in patent publication US20070269386A1, “New product and use and manufacture thereof” (priority 2006, published 2007).

System: adult

For `CN1CCCC1c1cccnc1` (stereo not shown) [nicotine, 3-(1-methyl-2-pyrrolidinyl)-pyridine], the “single dose that may kill an adult” value is given as “Approximately 40 milligrams”.
